Measurements: patent US8168651B2, “Protein kinase modulators” (Cylene Pharmaceuticals, Inc., priority 2008, dated 2012)
pIC50: −log10 of the molar value. Read-outs that look alike come from different tables or passages of the source.

How the values were obtained:
[1] = tested on: HCT-116 human colorectal carcinoma cells; test: Cell-proliferation assay using Alamar Blue dye; assay type: cell-based; conditions: Homo sapiens;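 further: cells exposed to compound for about 4 days, then Alamar Blue added and dye fluorescence read after about 4 h, compared with medium-only control wells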
[2] = tested on: MV-4-11; test: Cell proliferation modulatory activity, MV-4-11; assay type: cell-based; conditions: Homo sapiens, MV4-11
[3] = target: recombinant human PIM1 (Homo sapiens (Human), UniProt P11309); test: PIM-1 kinase activity in cell-free in vitro assay; assay type: biochemical; conditions: for inhibition at 0.5 µM: 500 nM compound, read-out: PIM-1: % inh 500 nM
Sequence of recombinant human PIM1 (P11309 whole entry): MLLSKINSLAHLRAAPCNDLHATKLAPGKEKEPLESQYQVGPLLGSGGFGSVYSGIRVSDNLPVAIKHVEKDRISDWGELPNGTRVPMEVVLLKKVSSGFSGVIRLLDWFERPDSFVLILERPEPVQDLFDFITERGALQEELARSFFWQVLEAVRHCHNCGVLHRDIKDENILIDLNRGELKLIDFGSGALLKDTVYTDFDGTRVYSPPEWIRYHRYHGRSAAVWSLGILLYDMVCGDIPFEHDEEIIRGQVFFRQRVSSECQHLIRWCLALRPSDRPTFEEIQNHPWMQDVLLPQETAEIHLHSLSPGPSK

[4] = tested on: Jurkat; test: Cell proliferation modulatory activity, Jurkat; assay type: cell-based; conditions: Homo sapiens
[5] = tested on: MDAMB231; test: Cell-proliferation assay using Alamar Blue dye; assay type: cell-based; conditions: Homo sapiens, MDA-MB-231
Method: (§1) A representative cell-proliferation assay protocol using Alamar Blue dye (stored at 4° C., use 20 ul per well) is described hereafter.
96-Well Plate Setup and Compound Treatment
(§2) • a. Split and trypsinize cells. • b. Count cells using hemocytometer. • c. Plate 4,000-5,000 cells per well in 100 μl of medium and seed into a 96-well plate according to the following plate layout. Add cell culture medium only to wells B10 to B12. Wells B1 to B9 have cells but no compound added.
(§3) • d. Add 100 μl of 2× drug dilution to each well in a concentration shown in the plate layout above. At the same time, add 100 μl of media into the control wells (wells B10 to B12). Total volume is 200 μl/well. • e. Incubate four (4) days at 37° C., 5% CO2 in a humidified incubator. • f. Add 20 μl Alamar Blue reagent to each well. • g. Incubate for four (4) hours at 37° C., 5% CO2 in a humidified incubator. • h. Record fluorescence at an excitation wavelength of 544 nm and emission wavelength of 590 nm using a microplate reader.
(§4) In the assays, cells are cultured with a test compound for approximately four days, the dye then is added to the cells and fluorescence of […] dye is detected after approximately four hours. Different types of cells can be utilized in the assays (e.g., HCT-116 human colorectal carcinoma cells, PC-3 human prostatic cancer cells and MiaPaca human pancreatic carcinoma cells). Anti-proliferative effects of representative compounds are provided hereafter

[6] = tested on: K-562; test: Cell proliferation modulatory activity, K-562; assay type: cell-based; conditions: Homo sapiens, K562
[7] = target: PIM2 (Homo sapiens (Human), UniProt Q9P1W9); test: PIM2 IC50; assay type: biochemical; conditions: Table 45
Sequence of PIM2 (Q9P1W9 whole entry): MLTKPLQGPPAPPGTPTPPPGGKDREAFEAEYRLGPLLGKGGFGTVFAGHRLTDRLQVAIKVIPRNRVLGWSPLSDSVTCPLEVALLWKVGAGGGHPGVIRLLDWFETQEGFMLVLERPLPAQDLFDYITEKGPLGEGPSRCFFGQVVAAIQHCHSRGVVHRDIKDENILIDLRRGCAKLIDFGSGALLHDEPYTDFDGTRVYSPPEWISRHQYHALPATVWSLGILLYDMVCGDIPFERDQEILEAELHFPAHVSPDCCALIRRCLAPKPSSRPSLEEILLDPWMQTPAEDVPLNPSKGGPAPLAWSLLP

[8] = tested on: MiaPaca human pancreatic carcinoma cells; test: Cell-proliferation assay using Alamar Blue dye; assay type: cell-based; conditions: MIA PaCa-2, Table 45
Method: as §1, §2, §3, §4

[9] = tested on: phosphoBAD ser 112; test: phosphoBAD ser 112 IC50; assay type: cell-based; conditions: read-out: phosphoBAD ser 112 IC50; Table 45
[10] = tested on: MV-4-11; test: Cell proliferation modulatory activity, MV-4-11; assay type: cell-based; conditions: Homo sapiens, MV4-11; Table 45; read-out: MV-4-11 IC50
[11] = tested on: K-562; test: Cell proliferation modulatory activity, K-562; assay type: cell-based; conditions: Homo sapiens, K562; Table 45; read-out: K-562 IC50
[12] = tested on: MDAMB231; test: MDAMB231 IC50; assay type: cell-based; conditions: Homo sapiens, MDA-MB-231; Table 45
[13] = HCT-116, read-out: HCT-116 (uM), cell proliferation modulatory activity, HCT-116, second column

Structure (SMILES): CNc1ncc2c(n1)c(Nc1ccccc1)nc1cc(C(=O)O)ccc12
- IC50 [1, 13]: 2.99 µM
- IC50 [2]: > 10 µM
- inhibition at 0.5 µM ([3]; cell-free): 20.8%
- IC50 [4]: 0.728 µM

Structure (SMILES): Nc1ncc2c(n1)c(NC1CC1)nc1cc(C(=O)O)ccc12 [drawing 1077]
- IC50 [5]: > 50 µM

Structure (SMILES): O=C(O)c1ccc2c(c1)nc(Nc1cc(F)cc(F)c1)c1ccsc12
- IC50 [6]: > 10 µM
- IC50 [1, 13]: > 10 µM
- IC50 [2]: 0.333 µM
- inhibition at 0.5 µM ([3]; cell-free): 84.4%
- pIC50 ([3]; cell-free): 7.09
- IC50 [4]: 5.86 µM

Structure (SMILES): COC(=O)c1ccc2c(c1)nc(NC1CC1)c1nc(SCc3ccccc3Cl)ncc12 [drawing 1044]
- IC50 [5]: 7.23 µM

Structure (SMILES): CCCNc1ncc2c(n1)c(NC1CC1)nc1cc(C(=O)O)ccc12 [drawing 1078]
- IC50 [5]: 4.36 µM

Structure (SMILES): O=C(O)c1ccc2c(c1)nc(Nc1cccc(F)c1)c1ccncc12
- IC50 [6]: > 10 µM
- IC50 [2]: 2.28 µM
- inhibition at 0.5 µM ([3]; cell-free): 96.1%
- pIC50 ([3]; cell-free): 6.84
- IC50 [4]: 3.2 µM

Structure (SMILES): O=C(O)c1ccc2c(c1)nc(Nc1cncc(C3CC3)c1)c1ccncc12 [drawing 1052]
- IC50 [5]: > 50 µM

Structure (SMILES): c1ccc(Nc2nc3cc(-c4nnc[nH]4)ccc3c3sccc23)cc1
- IC50 [6]: 6.26 µM
- IC50 ([1]; HCT-116, HCT-116, second column, read-out: HCT-116 (uM), cell proliferation modulatory activity): 4.9 µM
- inhibition at 0.5 µM ([3]; cell-free): -3.3%
- IC50 [4]: 7.6 µM

Structure (SMILES): Fc1cccc(Nc2nc3cc(-c4nnn[nH]4)ccc3c3cnccc23)c1
- inhibition at 0.5 µM ([3]; cell-free): 45%
- IC50 [4]: 9.43 µM

Structure (SMILES): O=C(O)c1ccc2c(c1)nc(NC1CC1)c1ccncc12 [drawing 1072]
- IC50 [5]: > 50 µM

Structure (SMILES): Clc1cccc(Nc2nc3cc(-c4nnn[nH]4)ccc3c3sccc23)c1
- inhibition at 0.5 µM ([3]; cell-free): 83.3%
- pIC50 ([3]; cell-free): 6.46
- IC50 [4]: 8.89 µM

Structure (SMILES): O=C(O)c1ccc2c(c1)nc(NC1CC1)c1nc(SCc3ccccc3Cl)ncc12 [drawing 1047]
- IC50 [5]: > 50 µM

Structure (SMILES): CN(C)CCNc1nc2cc(C(=O)O)ccc2c2cnc(NC3CC3)nc12 [drawing 1075]
- IC50 [5]: > 50 µM

Structure (SMILES): Cc1cc(Nc2ncc3c(n2)c(Nc2ccc(F)c(Cl)c2)nc2cc(C(=O)O)ccc23)[nH]n1 [drawing 1068]
- IC50 [5]: > 50 µM

Structure (SMILES): COC(=O)c1ccc2c(c1)nc(Nc1ccc(F)c(Cl)c1)c1ccncc12
- IC50 [1, 13]: 3.94 µM
- inhibition at 0.5 µM ([3]; cell-free): 10.2%
- IC50 [4]: 4.25 µM

Structure (SMILES): CC1CCCCN1CCCNc1ncc2c(n1)c(Nc1ccc(F)c(Cl)c1)nc1cc(C(=O)O)ccc12 (centres unmarked) [drawing 1062]
- IC50 [5]: 9.66 µM

Structure (SMILES): O=C(O)c1ccc2c(c1)nc(NCc1ccccc1)c1nc(NC3CC3)ncc12 [drawing 1059]
- IC50 [5]: > 50 µM

Structure (SMILES): C#Cc1cccc(Nc2nc3cc(C(=O)O)ccc3c3cnccc23)c1 [drawing 998]
- IC50 [5]: 11.8 µM

Structure (SMILES): O=C(O)c1ccc2c(c1)nc(NC1CC1)c1nc(Nc3ccccc3)ncc12 [drawing 1051]
- IC50 [5]: 6.88 µM

Structure (SMILES): O=C(O)c1ccc2c(c1)nc(NCc1ccccc1)c1ccncc12 [drawing 1000]
- IC50 [5]: 38 µM

Structure (SMILES): O=C(O)c1ccc2c(c1)nc(Nc1cc(Cl)cc(Cl)c1)c1ccsc12
- IC50 [1, 13]: 8.76 µM
- inhibition at 0.5 µM ([3]; cell-free): 67.1%
- IC50 [4]: 4.31 µM

Structure (SMILES): O=C(O)c1ccc2c(c1)nc(N1CCOCC1)c1nc(NC3CC3)ncc12 [drawing 1060]
- IC50 [5]: > 50 µM

Structure (SMILES): CNC(=O)c1cccc(Nc2nc3cc(C(=O)O)ccc3c3sccc23)c1
- IC50 [1, 13]: > 10 µM
- inhibition at 0.5 µM ([3]; cell-free): 18.3%
- IC50 [4]: 8.69 µM

Structure (SMILES): O=C(O)c1ccc2c(c1)nc(Nc1cc(F)cc(F)c1)c1ncncc12
- IC50 [6]: 2.41 µM
- IC50 [1, 13]: 4.05 µM
- inhibition at 0.5 µM ([3]; cell-free): 80%
- pIC50 ([3]; cell-free): < 5.96
- IC50 [4]: 2.59 µM

Structure (SMILES): O=C(O)c1ccc2c(c1)nc(Nc1ccc(F)c(Cl)c1)c1ncncc12
- inhibition at 0.5 µM ([3]; cell-free): 54.8%
- pIC50 ([3]; cell-free): 6.43
- IC50 [4]: 4.29 µM

Structure (SMILES): COC(=O)c1ccc2c(c1)nc(Nc1cccc(OC)c1)c1ccncc12
- inhibition at 0.5 µM ([3]; cell-free): 19.4%
- IC50 [4]: 3.4 µM

Structure (SMILES): O=C(NC1CC1)c1cccc(Nc2nc3cc(-c4nnn[nH]4)ccc3c3sccc23)c1
- IC50 [1, 13]: > 10 µM
- inhibition at 0.5 µM ([3]; cell-free): 46.8%
- IC50 [4]: 6.97 µM

Structure (SMILES): O=C(O)c1ccc2c(c1)nc(NC1CC1)c1nc(NC3CC3)ncc12 [drawing 1049]
- IC50 [5]: 7.22 µM

Structure (SMILES): COC(=O)c1ccc2c(c1)nc(Nc1ccccc1)c1ccncc12
- inhibition at 0.5 µM ([3]; cell-free): -3.02%
- IC50 [4]: 0.683 µM

Structure (SMILES): CCOc1ncc2c(n1)c(NC1CC1)nc1cc(C(=O)O)ccc12 [drawing 1048]
- IC50 [5]: > 50 µM

Structure (SMILES): CNC(=O)c1cccc(Nc2nc3cc(-c4nnn[nH]4)ccc3c3sccc23)c1
- IC50 [1, 13]: > 10 µM
- inhibition at 0.5 µM ([3]; cell-free): 81.7%
- pIC50 ([3]; cell-free): 6.48
- IC50 [4]: 4.22 µM

Structure (SMILES): COC(=O)c1ccc2c(c1)nc(NC1CC1)c1nc(SC)ncc12 [drawing 1074]
- IC50 [5]: 34.2 µM

Structure (SMILES): NC(=O)c1cccc2c1nc(Nc1ccc(F)cc1)c1ccncc12
- pIC50 [7]: > 6.30
- pIC50 [8]: > 6.00
- pIC50 [9]: > 7.00
- pIC50 [10]: > 7.00
- pIC50 [11]: > 5.30
- pIC50 [12]: < 4.52
- pIC50 ([3]; Table 45): > 7.00

Structure (SMILES): Fc1ccc(Cl)cc1Nc1nc2c(-c3nnc[nH]3)cccc2c2cnccc12
- pIC50 [7]: > 7.00
- pIC50 [8]: > 6.00
- pIC50 [9]: > 6.00
- pIC50 [10]: > 7.00
- pIC50 [11]: > 5.30
- pIC50 [12]: > 6.00
- pIC50 ([3]; Table 45): > 7.00

Structure (SMILES): C#Cc1cccc(Nc2nc3cc(C(=O)O)ccc3c3cnc(NCC4CC4)nc23)c1 [drawing 1039]
- IC50 [5]: 2.63 µM

Structure (SMILES): C#Cc1cccc(Nc2nc3cc(C(=O)O)ccc3c3cnccc23)c1 [drawing 1555]
- IC50 [6]: 3.33 µM
- IC50 [2]: > 10 µM
- inhibition at 0.5 µM ([3]; cell-free): 84.1%
- pIC50 ([3]; cell-free): 6.53
- IC50 [4]: 2.78 µM

Structure (SMILES): C#Cc1cccc(Nc2nc3cc(C(=O)O)ccc3c3cnc(NCC4CCCO4)nc23)c1 (centres unmarked) [drawing 1038]
- IC50 [5]: 8.38 µM

Structure (SMILES): O=C(O)c1ccc2c(c1)nc(NCc1cccnc1)c1nc(NC3CC3)ncc12 [drawing 1058]
- IC50 [5]: > 50 µM

Structure (SMILES): NS(=O)(=O)c1cccc(Nc2nc3c(-c4nc[nH]n4)cccc3c3cnccc23)c1
- pIC50 [7]: > 6.30
- pIC50 [8]: < 5.00
- pIC50 [9]: > 6.00
- pIC50 [10]: > 6.30
- pIC50 [11]: < 5.00
- pIC50 [12]: < 5.00
- pIC50 ([3]; Table 45): > 7.00

Structure (SMILES): Clc1ccc(Nc2nc3c(-c4nc[nH]n4)cccc3c3cnccc23)cc1
- pIC50 [7]: > 6.30
- pIC50 [8]: < 5.00
- pIC50 [9]: > 5.30
- pIC50 [10]: > 6.30
- pIC50 [11]: > 6.30
- pIC50 [12]: < 5.00
- pIC50 ([3]; Table 45): > 7.00

Structure (SMILES): O=C(O)c1ccc2c(c1)nc(NC1CC1)c1nc(NCc3ccccc3)ncc12 [drawing 1050]
- IC50 [5]: 23.5 µM

Structure (SMILES): Cc1cc(Nc2nc3c(-c4nnc[nH]4)cccc3c3cnccc23)ccc1F
- pIC50 [7]: > 6.30
- pIC50 [8]: > 6.30
- pIC50 [9]: > 5.30
- pIC50 [10]: > 7.00
- pIC50 [11]: < 5.00
- pIC50 [12]: < 5.00
- pIC50 ([3]; Table 45): > 7.00
